Structures can show the parent of a compound that is named as a salt.
Molecular target: T1, Rat brain protein farnesyltransferase (Rattus norvegicus, UniProt Q02293+Q04631)
T1 construct: Rat brain protein farnesyltransferase activity is measured; from tissue; host or cells: rat brain
Test: % inhibition of farnesylation, scintillation proximity assay with biotin-K Ras B fragment
Assay type: biochemical
Details: Table 1; 1 × 10^-5 M
Excerpt: The ability of the compounds of the invention to inhibit protein farnesyltransferase or protein geranylgeranyltransferase can be measured according to the method of Moores, et al., J. Biol. Chem. 266: 14603 (1991) or the method of Vogt, et al., J. Biol. Chem. 270:660-664 (1995). In addition, procedures for determination of the inhibition of farnesylation of the oncogene protein Ras are described by Goldstein, et al., J. Biol. Chem., 266:15575-15578 (1991) and by Singh in U.S. Pat. No. 5,245,061.
In addition, in vitro inhibition of protein farnesyltransferase may be measured by the following procedure. Rat brain protein farnesyltransferase activity is measured using an Amersham Life Science commercial scintillation proximity assay kit and substituting a biotin-K Ras B fragment (biotin-[…]CO2 H), 0.1 mM final concentration, for the biotin-lamin substrate provided by Amersham. The enzyme is purified according to Reiss, Y., et al., Cell, 62: 81-88 (1990), utilizing steps one through three.
The % inhibition of protein farnesyltransferase was determined for representative compounds of the invention.

T1 sequence (Q02293 whole entry, one chain of several): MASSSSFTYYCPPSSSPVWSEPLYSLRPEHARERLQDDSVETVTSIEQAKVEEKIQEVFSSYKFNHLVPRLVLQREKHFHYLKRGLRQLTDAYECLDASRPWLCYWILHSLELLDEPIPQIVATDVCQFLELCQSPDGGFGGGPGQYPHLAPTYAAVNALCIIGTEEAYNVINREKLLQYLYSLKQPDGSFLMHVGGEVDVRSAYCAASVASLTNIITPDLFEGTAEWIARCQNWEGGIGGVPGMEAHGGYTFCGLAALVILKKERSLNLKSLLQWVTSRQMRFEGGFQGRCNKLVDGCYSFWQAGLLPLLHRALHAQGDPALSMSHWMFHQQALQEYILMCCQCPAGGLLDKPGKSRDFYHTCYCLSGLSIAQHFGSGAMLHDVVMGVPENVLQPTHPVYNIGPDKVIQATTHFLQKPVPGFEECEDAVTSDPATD

| SMILES | % inhibition at 1 × 10^-5 M [%] |
| --- | --- |
| CCn1cc(NCc2ccc(C(=O)N[C@@H](CCSC)C(=O)O)c(-c3ccccc3)c2)c(=O)n1CC [Example 364] | 69 |
| CSCC[C@H](NC(=O)c1ccc(CNCCN2CCOCC2)cc1-c1ccccc1)C(=O)O [Example 365] | 97 |
| CSCC[C@H](NC(=O)c1ccc(CNCCN2CCCCC2)cc1-c1ccccc1)C(=O)O [Example 366] | 83 |
| CSCC[C@H](NC(=O)c1ccc(CNCCc2cccs2)cc1-c1ccccc1)C(=O)O [Example 369] | 87 |

Same assay, conditions: Table 2; 1 × 10^-6 M

| % inhibition at 1 × 10^-6 M [%] | SMILES |
| --- | --- |
| 18 | CSCC[C@H](NC(=O)c1ccc(NC(=O)Cc2nccs2)cc1-c1ccccc1)C(=O)O [Example 163] |
| 74 | CSCC[C@H](NC(=O)c1ccc(NC(=O)[C@@H]2CSCN2)cc1-c1ccccc1)C(=O)O [Example 165] |
| 31 | CSCC[C@H](NC(=O)c1ccc(NC(=O)C2CCC(=O)N2)cc1-c1ccccc1)C(=O)O (stereo partly drawn) [Example 202] |
| 50 | CSCCC(NC(=O)c1ccc(NC(=O)C2CCCNC2)cc1-c1ccccc1)C(=O)O (stereo not drawn) [Example 231] |
| 43 | CCCCON(CCC1CCCCC1)Cc1ccc(C(=O)N[C@@H](CCS(C)(=O)=O)C(=O)O)c(-c2ccccc2C)c1 [Example 298] |
| 31 | CSCC[C@H](NC(=O)c1ccc(CNCc2ccco2)cc1-c1ccccc1)C(=O)[O-].[Li+] [Example 302] |
| 62 | CSCC[C@H](NC(=O)c1ccc(CNC(C)(C)CC2CCCCC2)cc1-c1ccccc1C)C(=O)O [Example 308] |
| 94 | Cc1ccccc1-c1cc(CN(C)C(C)(C)Cc2ccccc2)ccc1C(=O)N[C@@H](CCS(C)(=O)=O)C(=O)O [Example 313] |
| 97 | Cc1ccccc1-c1cc(CN(C)C(C)(C)CC2CCCCC2)ccc1C(=O)N[C@@H](CCS(C)(=O)=O)C(=O)O [Example 314] |
| 63 | CSCC[C@H](NC(=O)c1ccc(CN(C2CC2)C(C)(C)CC2CCCCC2)cc1-c1ccccc1C)C(=O)O [Example 316] |
| 98 | CSCC[C@H](NC(=O)c1ccc(CN(C(C)C)C(C)(C)CC2CCCCC2)cc1-c1ccccc1C)C(=O)O [Example 318] |
| 98 | Cc1ccccc1-c1cc(CN(C2CC2)C(C)(C)Cc2ccccc2)ccc1C(=O)N[C@@H](CCS(C)(=O)=O)C(=O)O [Example 319] |
| 93 | Cc1ccccc1-c1cc(CN(C2CC2)C(C)(C)CC2CCCCC2)ccc1C(=O)N[C@@H](CCS(C)(=O)=O)C(=O)O [Example 320] |
| 98 | CSCC[C@H](NC(=O)c1ccc(CN(C2CC2)C2(CC3CCCCC3)CC2)cc1-c1ccccc1C)C(=O)O [Example 324] |
| 99 | CSCC[C@H](NC(=O)c1ccc(CN(C(C)C)C2(Cc3ccccc3)CC2)cc1-c1ccccc1C)C(=O)O [Example 325] |
| 91 | CSCC[C@H](NC(=O)c1ccc(CN(C(C)C)C2(CC3CCCCC3)CC2)cc1-c1ccccc1C)C(=O)O [Example 326] |
| 99 | Cc1ccccc1-c1cc(CN(C2CC2)C2(Cc3ccccc3)CCC2)ccc1C(=O)N[C@@H](CCS(C)(=O)=O)C(=O)O [Example 333] |
| 93 | Cc1ccccc1-c1cc(CN(C2CC2)C2(CC3CCCCC3)CCC2)ccc1C(=O)N[C@@H](CCS(C)(=O)=O)C(=O)O [Example 334] |
| 72 | CSCC[C@H](NC(=O)c1ccc(CN(C(C)C)C2(Cc3ccccc3)CCCC2)cc1-c1ccccc1C)C(=O)O [Example 343] |
| 95 | CSCC[C@H](NC(=O)c1ccc(CN(C(C)C)C2(CC3CCCCC3)CCCC2)cc1-c1ccccc1C)C(=O)O [Example 344] |
| 91 | Cc1ccccc1-c1cc(CN(C2CC2)C2(Cc3ccccc3)CCCC2)ccc1C(=O)N[C@@H](CCS(C)(=O)=O)C(=O)O [Example 345] |
| 98 | Cc1ccccc1-c1cc(CN(C2CC2)C2(CC3CCCCC3)CCCC2)ccc1C(=O)N[C@@H](CCS(C)(=O)=O)C(=O)O [Example 346] |

More lines, now with the values behind:

| SMILES | % inhibition at 1 × 10^-6 M [%] |
| --- | --- |
| CSCCC(NC(=O)c1ccc(NC(=O)Cc2cscn2)cc1-c1ccccc1)C(=O)O (stereo not drawn) [Example 162] | 12 |
| COC(=O)[C@H](CCSC)NC(=O)c1ccc(NC(=O)[C@@H]2CSCN2)cc1-c1ccccc1.Cl [Example 164] | 92 |
| CSCC[C@H](NC(=O)c1ccc(NC[C@@H]2CSCN2)cc1-c1ccccc1)C(=O)O.Cl [Example 166] | 97 |
| CSCCC(NC(=O)c1ccc(NC(=O)c2cncnc2)cc1-c1ccccc1)C(=O)O (stereo not drawn) [Example 219] | 56 |
| CSCC[C@H](NC(=O)c1ccc(N2CC(=O)NNC2=O)cc1-c1ccccc1)C(=O)O [Example 224] | 41 |
| CSCC[C@H](NC(=O)c1ccc(NC(=O)C2=C(C(F)(F)F)C=CNC2)cc1-c1ccccc1)C(=O)O [Example 283] | 98 |
| CSCC[C@H](NC(=O)c1ccc(NCC2CNCCN2)cc1-c1ccccc1)C(=O)O (stereo partly drawn) [Example 286] | 84 |
| CCCCN(C)N(CCC1CCCCC1)Cc1ccc(C(=O)N[C@@H](CCS(C)(=O)=O)C(=O)O)c(-c2ccccc2C)c1 [Example 300] | 22 |
| CSCC[C@H](NC(=O)c1ccc(CN(C)C(CC2CCCCC2)C(=O)N2CCCCC2)cc1-c1ccccc1C)C(=O)O (stereo partly drawn) [Example 301] | 98 |
| CSCC[C@H](NC(=O)c1ccc(CNC(C)(C)Cc2ccccc2)cc1-c1ccccc1C)C(=O)O [Example 307] | 82 |
| CSCC[C@H](NC(=O)c1ccc(CN(C)C(C)(C)Cc2ccccc2)cc1-c1ccccc1C)C(=O)O [Example 309] | 98 |
| Cc1ccccc1-c1cc(CNC(C)(C)Cc2ccccc2)ccc1C(=O)N[C@@H](CCS(C)(=O)=O)C(=O)O [Example 311] | 97 |
| CSCC[C@H](NC(=O)c1ccc(CN(C2CC2)C(C)(C)Cc2ccccc2)cc1-c1ccccc1C)C(=O)O [Example 315] | 93 |
| CSCC[C@H](NC(=O)c1ccc(CN(C(C)C)C(C)(C)Cc2ccccc2)cc1-c1ccccc1C)C(=O)O [Example 317] | 54 |
| CSCC[C@H](NC(=O)c1ccc(CN(C2CC2)C2(Cc3ccccc3)CCC2)cc1-c1ccccc1C)C(=O)O [Example 329] | 98 |
| CSCC[C@H](NC(=O)c1ccc(CN(C2CC2)C2(CC3CCCCC3)CCC2)cc1-c1ccccc1C)C(=O)O [Example 330] | 98 |
| CSCC[C@H](NC(=O)c1ccc(CN(C(C)C)C2(Cc3ccccc3)CCC2)cc1-c1ccccc1C)C(=O)O [Example 331] | 98 |
| CSCC[C@H](NC(=O)c1ccc(CN(C(C)C)C2(CC3CCCCC3)CCC2)cc1-c1ccccc1C)C(=O)O [Example 332] | 26 |
| CSCC[C@H](NC(=O)c1ccc(CN2C(=O)OC[C@@H]2CC2CCCCC2)cc1-c1ccccc1C)C(=O)O [Example 349] | 99 |

Same assay, conditions: read-out: % inhibition at 1 × 10^-6 M

| SMILES | inhibition at 1 µM [%] |
| --- | --- |
| CSCC[C@H](NC(=O)c1ccc(COCc2cccs2)cc1-c1ccccc1C)C(=O)O [Example 273, [4-(2-thienylmethoxymethyl)-2-(2-methylphenyl)benzoyl]methionine Lithium salt] | 96 |
| CSCC[C@H](NC(=O)c1ccc(COCc2ccsc2)cc1-c1ccccc1C)C(=O)O [Example 274, [4-(3-thienylmethoxymethyl)-2-(2-methylphenyl)benzoyl]methionine Lithium salt] | 94 |
| CSCC[C@H](NC(=O)c1ccc(COCc2ccc(-c3ccccc3)o2)cc1-c1ccccc1C)C(=O)O [Example 327, [4-(5-phenylfur-2-ylmethyloxymethyl)-2-(2-methylphenyl)benzoyl]methionine lithium salt] | 97 |

Same assay, conditions: read-out: % inhibition at 1 × 10^-6 M; Table 2; 1 × 10^-6 M

| inhibition at 1 µM [%] | SMILES |
| --- | --- |
| 24 | CSCC[C@H](NC(=O)c1ccc(COCC2CCOC2)cc1-c1ccccc1)C(=O)O (stereo partly drawn) [Example 287, [4-(3-tetrahydrofurylmethyloxymethyl)-2-phenylbenzoyl]methionine] |
| 98 | CSCC[C@H](NC(=O)c1ccc(CSc2nc3ccccc3s2)cc1-c1ccccc1C)C(=O)O [Example 323, [4-(2-benzothiazolylthiomethyl)-2-(2-methylphenyl)benzoyl]methionine] |

The remaining lines, values behind:

| SMILES | inhibition at 1 µM [%] |
| --- | --- |
| CSCC[C@H](NC(=O)c1ccc(COCC2CCCO2)cc1-c1ccccc1)C(=O)O (stereo partly drawn) [Example 288, [4-(2-tetrahydrofurylmethyloxymethyl)-2-phenylbenzoyl]methionine] | 22 |
| CSCC[C@H](NC(=O)c1ccc(COCc2ccco2)cc1-c1ccccc1C)C(=O)O [Example 299, [4-(2-furylmethyloxymethyl)-2-(2-methylphenyl)benzoyl]methionine] | 94 |
| CSCC[C@H](NC(=O)c1ccc(COc2nc3ccccc3s2)cc1-c1ccccc1C)C(=O)O [Example 321, [4-(2-benzothiazolyloxymethyl)-2-(2-methylphenyl)benzoyl]methionine] | 90 |
| CSCC[C@H](NC(=O)c1ccc(CSc2nc3ccccc3o2)cc1-c1ccccc1C)C(=O)O [Example 322, [4-(2-benzoxazolylthiomethyl)-2-(2-methylphenyl)benzoyl]methionine] | 98 |

From patent US6204293A, “Inhibitors of protein isoprenyl transferases” (University of Pittsburgh, priority 1998, dated 2001)
